Measured values reported in article PMC12560828, “Chemical structure drives developmental toxicity of alkyl-substituted naphthalenes in zebrafish” (Environment international, 2025).

Key:
[1] = tested on: zebrafish larvae, 120 hpf; assay: Larval photomotor response (LPR) assay after vial exposure; assay type: in vivo, Danio rerio; settings: for fold_change: LPR
Experimental: (§1) When embryos were 6 hpf they were bleached in groups of 1000 or less to limit bacterial growth in sealed vials. Embryos were placed in a strainer for transfer between solutions in 500 mL containers. […] Pools of eight embryos were placed into 2 mL clear glass screw cap exposure vials with polyvinyl-faced pulp liner (Avantar Radnor, PA, United States) using a glass Pasteur pipette. Excess EM was removed, and 2 mL of fresh EM was immediately added. A total of 10 uL of 200x working stock (in DMSO) was added to each vial, then immediately capped and inverted three times to mix. […] Vials were loaded into a custom 3D printed vial holder for slow end-over-end rotation in a dark 28 °C incubator overnight. […] At 24 hpf, embryos were removed from exposure vials and singulated into 96-well plates loaded with 100 μL chemical-free EM. Each exposure vial group was maintained in plate columns. After loading into 96-well plates, embryos were assessed for 24-hour mortality. For the remainder of the exposure, plates were kept stationary at 28 °C in the dark, until 120 hpf when morphology screening and the larval photo motor response (LPR) assay were conducted, section 2.3.2 and section 2.3.3, respectively.
Each treatment group was replicated over four vials, resulting in 32 embryos per treatment, split over two replicate 96-well plates per chemical. […] Vial groups of plated larvae were tracked to assess the impact of the vial on the results. All reported concentrations were nominal water concentrations and are included in SI-T4.
The LPR assay was conducted at 120 hpf. […] Larval movement was tracked throughout minutes 6–24. Animals dead or morphologically abnormal were excluded from the analysis, and if more than 30 % of the wells in a treatment group were excluded, the treatment was removed.
Movement values were binned into 6s intervals, log normalized and used to calculate area under the curve (AUC). AUC values from the first cycle after calibration were used to calculate the LEL for each period (light and dark).

[2] = tested on: early life stage zebrafish (Danio rerio) embryos; assay: Developmental toxicity morphology screen, sealed rotating vial exposure; assay type: in vivo; design: bmd, MO24 / bmd, MORT / bmd, ANY_ / bmd, AXIS / bmd, CRAN / bmd, EDEM / bmd, LTRK / bmd, MUSC / bmdL, ANY_ / bmdU, ANY_ / bmdL, AXIS / bmdU, AXIS / bmdL, CRAN / bmdU, CRAN / bmdL, EDEM / bmdU, EDEM / bmdL, LTRK / bmdU, LTRK / bmdL, MO24 / bmdU, MO24 / bmdL, MORT / bmdU, MORT: unit not given here; settings: for BMC50 AXIS (curved or bent body axis at 120 hpf) / BMC50 CRAN (craniofacial malformation at 120 hpf) / BMC50 EDEM (pericardial and/or yolk sac edema at 120 hpf) / BMC50 LTRK (lower trunk and/or caudal fin at 120 hpf) / BMC50 MO24 (mortality at 24 hpf) / BMC50 MORT (mortality at 120 hpf): Fig. 2; for BMC50 AXIS (curved or bent body axis at 120 hpf) / BMC50 CRAN (craniofacial malformation at 120 hpf) / BMC50 EDEM (pericardial and/or yolk sac edema at 120 hpf) / BMC50 LTRK (lower trunk and/or caudal fin at 120 hpf) / BMC50 MO24 (mortality at 24 hpf) / BMC50 MORT (mortality at 120 hpf) / BMC50 Any effect: nominal concentration; for BMC50 Any effect: Fig. 2 heatmap, exposure 6-24 hpf in vials, summary of all endpoints; for any effect BMD50: SI-T5; for bmd, MO24 / bmd, MORT / bmd, ANY_ / bmd, AXIS / bmd, CRAN / bmd, EDEM / bmd, LTRK: benchmark dose; for bmd, MO24: endpoint MO24; for bmd, MORT: endpoint MORT; for bmd, ANY_: morphology endpoint ANY_ (any effect); for bmd, AXIS: morphology endpoint AXIS; for bmd, CRAN: morphology endpoint CRAN; for bmd, EDEM: morphology endpoint EDEM; for bmd, LTRK: morphology endpoint LTRK
Experimental: as §1
Each treatment group was replicated over four vials, resulting in 32 embryos per treatment, split over two replicate 96-well plates per chemical. […] All reported concentrations were nominal water concentrations and are included in SI-T4.
At 24 hpf embryos were assessed for mortality (MO24). At 120 hpf embryos were assessed for abnormality in […] morphological endpoints: mortality (MORT), edemas (EDEM), bent axis (AXIS), touch response (TCHR), craniofacial (CRAN), muscular/cardiovascular (MUSC), lower trunk (LRTK), brain (BRAN), skin (SKIN), and notochord malformations (NC). Morphological assessments were made by a team of three to four individuals. The team was blinded to the identity, plate layout, and concentrations of the chemicals, thereby minimizing bias in morphological screening assessment. To ensure the assessments were consistent, concentration–response reproducibility of a parathion ethyl quality control plate was performed along with each experimental exposure set up. Details of all measured endpoints can be found at Developmental toxicity zebrafish phenotype atlas. […] Each endpoint was scored as a binary presence/absence and scores were compiled into an “Any effect” endpoint, the presence of abnormality in any individual endpoint.
The Any effect percent was used to calculate the BMC50, 50 % change relative to the background for each endpoint and chemical. All values were reported as the nominal exposure concentration.

[3] = period dark, round 1, conc 3.125
[4] = period dark, round 1, conc 6.25
[5] = period dark, round 1, conc 12.5
[6] = period light, round 1, conc 3.125
[7] = period light, round 1, conc 6.25
[8] = period light, round 1, conc 12.5

Cc1ccc2c(C)c(C)ccc2c1C [1,2,5,6-tetramethylnaphthalene]
fold_change [1, 3]: -0.03133 | fold_change [1, 4]: -0.4187 | fold_change [1, 5]: -0.4196 | fold_change ([1]; period dark, round 1, conc 25): -0.1628 | fold_change ([1]; period dark, round 1, conc 50): -0.3813 | fold_change [1, 6]: 0.2549 | fold_change [1, 7]: -0.3197 | fold_change [1, 8]: 0.8672 | fold_change ([1]; period light, round 1, conc 25): -0.1531 | fold_change ([1]; period light, round 1, conc 50): 0.1565

Cc1ccc2ccccc2c1C [1,2-dimethylnaphthalene]
LPR behavioral effect ([1]; 120 hpf, light/dark periods, result in words): active

Cc1cc2c(C)ccc(C)c2cc1C [1,4,6,7-tetramethylnaphthalene]
BMC50 AXIS (curved or bent body axis at 120 hpf) [2]: 21.1 µM | BMC50 CRAN (craniofacial malformation at 120 hpf) [2]: 23.9 µM | BMC50 EDEM (pericardial and/or yolk sac edema at 120 hpf) [2]: 22.5 µM | BMC50 LTRK (lower trunk and/or caudal fin at 120 hpf) [2]: 22.6 µM | BMC50 MO24 (mortality at 24 hpf) [2]: 35.4 µM | BMC50 MORT (mortality at 120 hpf) [2]: 29.4 µM | BMC50 Any effect [2]: 20.5 µM | any effect BMD50 [2]: 20.47 µM | bmd, MO24 [2]: 35.4057 | bmd, MORT [2]: 29.3744 | bmd, ANY_ [2]: 20.4728 | bmd, AXIS [2]: 21.1106 | bmd, CRAN [2]: 23.8517 | bmd, EDEM [2]: 22.5215 | bmd, LTRK [2]: 22.6067 | fold_change [1, 3]: 0.4047 | fold_change [1, 4]: -0.3364 | fold_change [1, 5]: -0.3332 | fold_change [1, 6]: -0.4049 | fold_change [1, 7]: 0.02072 | fold_change [1, 8]: -0.2213

Cc1ccc(C)c2ccccc12 [1,4-dimethylnaphthalene]
BMC50 MO24 (mortality at 24 hpf) [2]: 30.4 µM | BMC50 MORT (mortality at 120 hpf) [2]: 28.3 µM | BMC50 Any effect [2]: 24.9 µM | any effect BMD50 [2]: 24.93 µM | bmd, MO24 [2]: 30.4433 | bmd, MORT [2]: 28.3398 | bmd, ANY_ [2]: 24.9263 | fold_change [1, 3]: 0.2846 | fold_change [1, 4]: -0.05841 | fold_change [1, 5]: -0.1506 | fold_change ([1]; period dark, round 1, conc 25): -0.2067 | fold_change [1, 6]: 0.303 | fold_change [1, 7]: -0.4509 | fold_change [1, 8]: 1.1 | fold_change ([1]; period light, round 1, conc 25): 0.6023

Cc1cc2cccc(C)c2cc1C [1,6,7-trimethylnaphthalene]
BMC50 AXIS (curved or bent body axis at 120 hpf) [2]: 32.1 µM | BMC50 CRAN (craniofacial malformation at 120 hpf) [2]: 28.2 µM | BMC50 EDEM (pericardial and/or yolk sac edema at 120 hpf) [2]: 34.7 µM | BMC50 LTRK (lower trunk and/or caudal fin at 120 hpf) [2]: 32.9 µM | BMC50 MO24 (mortality at 24 hpf) [2]: 38.9 µM | BMC50 MORT (mortality at 120 hpf) [2]: 31.5 µM | BMC50 Any effect [2]: 21.4 µM | any effect BMD50 [2]: 21.39 µM | bmd, MO24 [2]: 38.9242 | bmd, MORT [2]: 31.4823 | bmd, ANY_ [2]: 21.386 | bmd, AXIS [2]: 32.075 | bmd, CRAN [2]: 28.1944 | bmd, EDEM [2]: 34.7005 | bmd, LTRK [2]: 32.865 | fold_change [1, 3]: -0.2752 | fold_change [1, 4]: -0.07056 | fold_change [1, 5]: -0.09309 | fold_change ([1]; period dark, round 2, conc 12.8): -0.1665 | fold_change ([1]; period dark, round 2, conc 16): -0.296 | fold_change ([1]; period dark, round 2, conc 20): -0.09002 | fold_change [1, 6]: -0.921 | fold_change [1, 7]: -0.5316 | fold_change [1, 8]: -0.2101 | fold_change ([1]; period light, round 2, conc 12.8): 0.6308 | fold_change ([1]; period light, round 2, conc 16): -0.8625 | fold_change ([1]; period light, round 2, conc 20): 0.7418
